The source of these data is patent publication US20040024024A1, “Aromatic sulfone hydroxamates and their use as protease inhibitors” (priority 2001, published 2004).

One may read the IC50 as the midpoint of a concentration-inhibition curve. Broadly, the Ki is the equilibrium dissociation constant of an inhibitor or competing ligand from its target.

What all share (assay type): biochemical
In test [1] the target is T1, Human recombinant MMP-9 (Homo sapiens, UniProt P14780).
T1 construct: made in house; host or cells: MMP-9-transfected HT1080 cells (spent media)
Nature of the test: In vitro MMP inhibition, IC50 determination (fluorogenic substrate I). As to conditions: value outside parentheses. Summed up: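 Reduction in fluorescence (328 nm excitation, 415 nm emission) from cleavage of 4 μM quenched peptide substrate I, measured at room temperature against inhibitor concentration, gave IC50. Enzyme: trypsin- or APMA-activated MMP-9 purified from transfected HT1080 medium; buffer 100 mM Tris, 100 mM NaCl, 10 mM CaCl2, pH 7.5.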

The target of a further test is T2, Human recombinant MMP-1 (Homo sapiens, UniProt P03956).
T2 construct: made in house; host or cells: MMP-1-transfected HT-1080 cells (spent media)
T2 sequence (P03956 100-469): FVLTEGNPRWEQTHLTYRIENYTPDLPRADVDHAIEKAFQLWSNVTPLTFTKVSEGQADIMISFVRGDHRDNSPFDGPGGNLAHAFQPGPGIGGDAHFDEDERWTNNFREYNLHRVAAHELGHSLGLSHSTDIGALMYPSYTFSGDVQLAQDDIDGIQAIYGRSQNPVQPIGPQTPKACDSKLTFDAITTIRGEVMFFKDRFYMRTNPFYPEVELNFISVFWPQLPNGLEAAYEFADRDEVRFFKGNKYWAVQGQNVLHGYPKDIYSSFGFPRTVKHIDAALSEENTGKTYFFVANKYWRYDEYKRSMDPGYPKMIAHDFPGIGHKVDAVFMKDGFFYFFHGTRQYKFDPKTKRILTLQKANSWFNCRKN
The test can be described thus: In vitro MMP inhibition, Ki determination (fluorogenic substrate II). As to conditions: value in parentheses. Summed up:
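Activated human recombinant MMP-1 (APMA- or trypsin-activated; proenzyme from transfected HT-1080 cells) incubated 1 hr at room temperature with 4 μM MCA/Dpa fluorogenic substrate II at or below Km in Tris buffer pH 7.5 with CaCl2. Fluorescence ex 330/em 420 nm; Ki from Morrison-equation non-linear regression, uncorrected for substrate.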

Another test deals with T3, Human recombinant MMP-13 (Homo sapiens, UniProt P45452).
T3 construct: made in house; host or cells: baculovirus / insect cells
The test can be described thus: In vitro MMP inhibition, IC50 determination (fluorogenic substrate I). The note with it: value outside parentheses. An outline of the steps:
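Fluorescence at 415 nm (excitation 328 nm) reports Gly-Leu cleavage of 4 μM quenched methoxycoumarin peptide substrate I. Human recombinant MMP-13, activated by trypsin or APMA, was incubated at room temperature with varied inhibitor concentrations in pH 7.5 Tris/NaCl/CaCl2 buffer; IC50 derived from reduced fluorescence.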

Test [2] has as its target T1, Human recombinant MMP-9. Nature of the test: In vitro MMP inhibition, Ki determination (fluorogenic substrate II). As to conditions: value in parentheses. An outline of the steps:
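MMP-9 proenzyme purified from transfected HT1080 cell media, activated with APMA, trypsin or recombinant MMP-3; hydroxamates diluted in pH 7.5 Tris/NaCl/CaCl2 buffer. Cleavage of 4 μM MCA/Dpa substrate II followed by fluorescence (ex 330/em 420 nm), 1 h at room temperature. Ki from Morrison-equation fit, substrate at/below Km, uncorrected.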

Each structure is given as a SMILES string. A value given as a limit tells only on which side of the number the result lay.

T1 sequence (P14780 107-707 limits assumed): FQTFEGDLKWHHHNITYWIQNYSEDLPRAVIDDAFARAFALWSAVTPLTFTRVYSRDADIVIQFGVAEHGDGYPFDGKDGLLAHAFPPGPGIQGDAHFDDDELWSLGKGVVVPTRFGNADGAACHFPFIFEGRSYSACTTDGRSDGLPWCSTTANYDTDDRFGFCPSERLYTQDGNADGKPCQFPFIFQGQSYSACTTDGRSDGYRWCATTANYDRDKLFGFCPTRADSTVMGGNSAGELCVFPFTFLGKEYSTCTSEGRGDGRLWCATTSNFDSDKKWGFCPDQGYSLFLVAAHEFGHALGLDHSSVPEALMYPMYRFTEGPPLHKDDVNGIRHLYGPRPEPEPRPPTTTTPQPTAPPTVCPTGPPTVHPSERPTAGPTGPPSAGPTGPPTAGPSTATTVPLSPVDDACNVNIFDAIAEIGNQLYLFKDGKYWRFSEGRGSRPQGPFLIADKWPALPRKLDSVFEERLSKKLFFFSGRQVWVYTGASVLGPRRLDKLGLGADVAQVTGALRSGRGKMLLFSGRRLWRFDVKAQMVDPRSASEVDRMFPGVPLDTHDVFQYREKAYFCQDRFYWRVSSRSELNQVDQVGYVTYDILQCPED

For `O=C(NO)C1(S(=O)(=O)c2ccc(OCCCc3cncc(-c4ccc(F)cc4)c3)cc2)CCOCC1` [Example 523], the IC50 came to 1650 nM on Human recombinant MMP-9 [1] and 0.3 nM on Human recombinant MMP-13. Moreover, the Ki came out at 3210 nM on Human recombinant MMP-1 and 1250 nM at Human recombinant MMP-9 [2].
The like results for `O=C(NO)C1(S(=O)(=O)c2ccc(OCCCc3cc(-c4ccc(F)cc4F)cs3)cc2)CCOCC1` [Example 587] were, in that order, 1370 nM, 0.1 nM, more than 10000 nM and 8180 nM.
`CCN1CCC(C(=O)NO)(S(=O)(=O)c2ccc(OCCCSc3nc4ccccc4s3)cc2)CC1` [Example 591]: the figures for the IC50 on Human recombinant MMP-9 [1] and at Human recombinant MMP-13 were 12 nM and 0.3 nM, respectively. In addition, the Ki on Human recombinant MMP-1 is more than 10000 nM; on Human recombinant MMP-9 [2], 4.22 nM.
The like results for `O=C(Cc1csc2ccccc12)NCCOc1ccc(S(=O)(=O)C2(C(=O)NO)CCOCC2)cc1` [Example 596] were, in that order, 194 nM, 2.7 nM, more than 10000 nM and 308 nM.
Turning to `O=C(NCCOc1ccc(S(=O)(=O)C2(C(=O)NO)CCOCC2)cc1)c1cc2ccccc2[nH]1` [Example 599], the IC50 on Human recombinant MMP-9 [1] is 11.6 nM; at Human recombinant MMP-13, 0.1 nM. In addition, the Ki is more than 10000 nM at Human recombinant MMP-1 and 11.3 nM on Human recombinant MMP-9 [2].
The like results for `O=C(NO)C1(S(=O)(=O)c2ccc(OCCCc3cc(-c4ccc(OC(F)(F)F)cc4)cs3)cc2)CCOCC1` [Example 608] were, in that order, 1790 nM, 6.6 nM, more than 10000 nM and 1370 nM.
The like results for `N#Cc1ccc(-c2cccc(CCCOc3ccc(S(=O)(=O)C4(C(=O)NO)CCOCC4)cc3)c2)cc1` [Example 624] were, in that order, 1030 nM, 0.3 nM, more than 10000 nM and 443 nM.
The like results for `O=C(NO)C1(S(=O)(=O)c2ccc(OCCCc3cccc(-c4ccc([N+](=O)[O-])cc4)c3)cc2)CCOCC1` [Example 626] were, in that order, 885 nM, 0.4 nM, more than 10000 nM and 1100 nM.
In the case of `O=C(NO)C1(S(=O)(=O)c2ccc(OCCCc3cccc(-c4ccc5c(c4)OCO5)c3)cc2)CCOCC1` [Example 628], the IC50 turned out to be 1750 nM at Human recombinant MMP-9 [1] and 3.3 nM on Human recombinant MMP-13. In addition, the values for the Ki on Human recombinant MMP-1 and on Human recombinant MMP-9 [2] were more than 10000 nM and 1930 nM, respectively.
The like results for `O=C(NO)C1(S(=O)(=O)c2ccc(OCCCc3cccc(-c4ccc(F)cc4F)c3)cc2)CCOCC1` [Example 630] were, in that order, 5990 nM, 0.4 nM, more than 10000 nM and 2280 nM.
Take `O=C(NO)C1(S(=O)(=O)c2ccc(OCCCc3cccc(-c4ccsc4)c3)cc2)CCOCC1` [Example 632]: the IC50 at Human recombinant MMP-9 [1] turned out to be 411 nM; on Human recombinant MMP-13, 1.6 nM. Moreover, the Ki at Human recombinant MMP-1 was more than 10000 nM; at Human recombinant MMP-9 [2], 716 nM.
Turning to `O=C(NO)C1(S(=O)(=O)c2ccc(OCCCc3cccc(-c4ccoc4)c3)cc2)CCOCC1` [Example 637], the IC50 at Human recombinant MMP-9 [1] was 830 nM; at Human recombinant MMP-13, 1.8 nM. The Ki at Human recombinant MMP-1 was more than 10000 nM; on Human recombinant MMP-9 [2], 881 nM.
